According to patent US12202839B2, “In-flow photooxygenation of aminothienopyridinones generates PTP4A3 phosphatase inhibitors” (University of Virginia Patent Foundation, priority 2018, dated 2025):
Entries after “also recorded” stand apart in the source; their conditions may differ. Values belong to the molecule of their own block, whether it stands above or below them.

Columns and labels:
[1] = biological target: Recombinant human PTP4A3 phosphatase (Homo sapiens (Human), UniProt O75365); experiment: In vitro inhibition of PTP4A3 phosphatase activity (automated enzymatic assay); assay type: biochemical; conditions: mean of N independent assays, 10-point concentration curves, six replicates; read-out: IC50 (nM) ± SEM
[2] = system: Hs578T; experiment: Loss of spheroid viability after 48-hour exposure, preexisting spheroids, CellTiterGlo 3D; assay type: cell-based; conditions: Homo sapiens, Hs-578T, N=3, read-out: Cellular IC50 values for loss of spheroid viability after 48-hour exposure (μM ± S.E.M.)
[3] = system: Kuramochi; experiment: as above; assay type: cell-based; conditions: Homo sapiens, N=3, read-out: Cellular IC50 values for loss of spheroid viability after 48-hour exposure (μM ± S.E.M.)
[4] = system: MDA-MB-231; experiment: as above; assay type: cell-based; conditions: Homo sapiens, MDA-MB-231 spheroids, N=3, read-out: Cellular IC50 values for loss of spheroid viability after 48-hour exposure (μM ± S.E.M.)
[5] = system: OVCAR4; experiment: as above; assay type: cell-based; conditions: Homo sapiens, OVCAR-4, 48 h, N=3, read-out: Cellular IC50 values for loss of spheroid viability after 48-hour exposure (μM ± S.E.M.)
[6] = biological target: recombinant human His6-tagged PTP4A1 (Homo sapiens (Human), UniProt Q93096); experiment: In vitro biochemical analysis of PTP4A inhibition, DiFMUP substrate; conditions: for IC50: DiFMUP 12 μM, 25° C., 25 minutes, read-out: IC50 values for Compounds Inhibiting Activity of PTP4A Family Members (mean (nM) ± S.E.M.), PTP4A1
[7] = biological target: recombinant human His6-tagged PTP4A3 (Homo sapiens (Human), UniProt O75365); experiment: as above; conditions: for IC50: DiFMUP 12 μM, 25° C., 25 minutes, read-out: IC50 values for Compounds Inhibiting Activity of PTP4A Family Members (mean (nM) ± S.E.M.), PTP4A3; for preference among the PTP4A family members (PTP4A3 versus PTP4A1, PTP4A2), in words: comparison of the IC50 values of Table 4
[8] = system: Kasumi (human AML); experiment: Leukemia/lymphoma cell viability, Alamar blue; assay type: cell-based; conditions: 48 h, read-out: EC50 (mean μM ± SEM)
[9] = system: C1498 (mouse AML); experiment: Leukemia/lymphoma cell viability, Alamar blue; assay type: cell-based; conditions: C1498, 48 h, read-out: EC50 (mean μM ± SEM)
[10] = system: MOLT4 (human TALL); experiment: Leukemia/lymphoma cell viability, Alamar blue; assay type: cell-based; conditions: MOLT-4, 48 h, read-out: EC50 (mean μM ± SEM)
[11] = system: RS4;11 (human BALL); experiment: Leukemia/lymphoma cell viability, Alamar blue; assay type: cell-based; conditions: RS4-11, 48 h, read-out: EC50 (mean μM ± SEM)
[12] = system: MV-4-11 (human AML/ALL); experiment: Leukemia/lymphoma cell viability, Alamar blue; assay type: cell-based; conditions: MV4-11, 48 h, read-out: EC50 (mean μM ± SEM)
[13] = system: K562 (human CML); experiment: Leukemia/lymphoma cell viability, Alamar blue; assay type: cell-based; conditions: K562, 48 h, read-out: EC50 (mean μM ± SEM)
[14] = system: U937 (human Histiocytic lymphoma); experiment: Leukemia/lymphoma cell viability, Alamar blue; assay type: cell-based; conditions: U-937, 48 h, read-out: EC50 (mean μM ± SEM)
[15] = system: HL60 (human APML); experiment: Leukemia/lymphoma cell viability, Alamar blue; assay type: cell-based; conditions: HL-60, 48 h, read-out: EC50 (mean μM ± SEM)
[16] = system: HL60-VCR (drug resistant human APML); experiment: Leukemia/lymphoma cell viability, Alamar blue; assay type: cell-based; conditions: HL60/VCR, 48 h, read-out: EC50 (mean μM ± SEM)
[17] = system: COV362-47R; experiment: Monolayer cancer cell viability, Alamar blue; assay type: cell-based; conditions: COV362-47R monolayer, 48-hour exposure, read-out: EC50 (mean μM ± SEM)
[18] = system: COV362; experiment: Monolayer cancer cell viability, Alamar blue; assay type: cell-based; conditions: 48-hour exposure, read-out: EC50 (mean μM ± SEM)
[19] = system: OVCAR4; experiment: Monolayer cancer cell viability, Alamar blue; assay type: cell-based; conditions: Homo sapiens, OVCAR-4, 48 h, read-out: EC50 (mean μM ± SEM)
[20] = system: OVSAHO; experiment: Monolayer cancer cell viability, Alamar blue; assay type: cell-based; conditions: Homo sapiens, OVSAHO, 48 h, read-out: EC50 (mean μM ± SEM)
[21] = system: V581; experiment: Monolayer cancer cell viability, Alamar blue; assay type: cell-based; conditions: 48 h, read-out: EC50 (mean μM ± SEM)
[22] = system: Hs578T; experiment: Monolayer cancer cell viability, Alamar blue; assay type: cell-based; conditions: Homo sapiens, Hs-578T, 48 h, read-out: EC50 (mean μM ± SEM)
[23] = system: COV362-47R; experiment: Spheroid growth viability, CellTiterGlo 3D; assay type: cell-based; conditions: COV362-47R spheroid, 48 hour exposure, read-out: EC50 (mean μM ± SEM)
[24] = system: COV362; experiment: Spheroid growth viability, CellTiterGlo 3D; assay type: cell-based; conditions: 48 hour exposure, read-out: EC50 (mean μM ± SEM)
[25] = system: Kuramochi; experiment: Spheroid growth viability, CellTiterGlo 3D; assay type: cell-based; conditions: 48 h, read-out: EC50 (mean μM ± SEM)
[26] = system: OVCAR4; experiment: Spheroid growth viability, CellTiterGlo 3D; assay type: cell-based; conditions: Homo sapiens, OVCAR-4, 48 h, read-out: EC50 (mean μM ± SEM)
[27] = system: OVSAHO; experiment: Spheroid growth viability, CellTiterGlo 3D; assay type: cell-based; conditions: Homo sapiens, 48 h, read-out: EC50 (mean μM ± SEM)
[28] = system: V581; experiment: Spheroid growth viability, CellTiterGlo 3D; assay type: cell-based; conditions: 48 h, read-out: EC50 (mean μM ± SEM)
[29] = biological target: recombinant human His6-tagged PTP4A2 (Homo sapiens (Human), UniProt Q12974); experiment: In vitro biochemical analysis of PTP4A inhibition, DiFMUP substrate; conditions: for IC50: DiFMUP 12 μM, 25° C., 25 minutes, read-out: IC50 values for Compounds Inhibiting Activity of PTP4A Family Members (mean (nM) ± S.E.M.), PTP4A2
Chain of recombinant human His6-tagged PTP4A2 (Q12974 whole entry): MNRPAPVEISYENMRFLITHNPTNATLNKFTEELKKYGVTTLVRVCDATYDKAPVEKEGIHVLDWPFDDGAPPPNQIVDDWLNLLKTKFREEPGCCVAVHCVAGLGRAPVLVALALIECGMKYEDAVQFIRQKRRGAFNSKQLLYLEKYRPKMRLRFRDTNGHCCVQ

Chain of recombinant human His6-tagged PTP4A3 (O75365 whole entry): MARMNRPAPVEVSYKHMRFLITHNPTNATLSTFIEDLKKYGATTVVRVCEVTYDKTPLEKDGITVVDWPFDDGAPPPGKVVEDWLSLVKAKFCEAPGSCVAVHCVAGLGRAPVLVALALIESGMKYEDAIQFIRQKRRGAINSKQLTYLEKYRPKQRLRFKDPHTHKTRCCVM
Chain of Recombinant human PTP4A3 phosphatase (O75365 whole entry): as above
Chain of recombinant human His6-tagged PTP4A1 (Q93096 whole entry): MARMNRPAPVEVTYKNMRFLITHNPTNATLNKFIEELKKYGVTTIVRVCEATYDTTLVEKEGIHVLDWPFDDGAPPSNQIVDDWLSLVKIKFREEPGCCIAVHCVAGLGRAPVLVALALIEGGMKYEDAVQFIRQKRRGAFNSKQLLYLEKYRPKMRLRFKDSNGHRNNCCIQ

SMILES: N=C1C(=O)NC(=O)c2cc(-c3ccccc3)sc21 [Compound 2, 7-Imino-2-phenylthieno[3,2-c]pyridine-4,6(5H,7H)-dione, reference compound]
IC50 [2]: 8.48 ± 2.38 µM
IC50 [3]: 13.2 ± 0.65 µM
IC50 [4]: 32.7 ± 7.02 µM
IC50 [5]: 4.42 µM

SMILES: N=C1C(=O)NC(=O)c2cc(-c3ccccc3Cl)sc21 [Compound 9k, 2-(2-Chlorophenyl)-7-iminothieno[3,2-c]pyridine-4,6(5H,7H)-dione]
IC50 [1]: 36.1 ± 1.43 nM
IC50 [2]: 14.4 ± 4.91 µM
IC50 [3]: > 50 µM
IC50 [4]: > 50 µM
IC50 [5]: 12.3 ± 2.26 µM
IC50 [6]: 49 ± 5 nM
IC50 [7]: 36.1 nM
preference among the PTP4A family members (PTP4A3 versus PTP4A1, PTP4A2), in words [7]: more pronounced preference for PTP4A3

SMILES: CC(C)(C)C(=O)Oc1ccc(-c2cc3c(s2)C(=N)C(=O)NC3=O)cc1 [Compound 9e, 4-(7-Imino-4,6-dioxo-4,5,6,7-tetrahydrothieno[3,2-c]pyridin-2-yl)phenyl pivalate]
IC50 [1]: 256 ± 12.3 nM

SMILES: COc1cccc(-c2cc3c(s2)C(=N)C(=O)NC3=O)c1 [Compound 9j, 2-(3-Methoxyphenyl)-7-iminothieno[3,2-c]pyridine-4,6(5H,7H)-dione]
IC50 [1]: 47.6 ± 2.68 nM

SMILES: N=C1C(=O)NC(=O)c2cc(-c3ccc(OCCCCNC(=O)CC45CC6CC(CC(C6)C4)C5)cc3)sc21 [EJR-876-35]
EC50 [8]: 4.3 ± 1.3 µM
EC50 [9]: 1.2 ± 0.2 µM
EC50 [10]: 1 ± 0.1 µM
EC50 [11]: 2.2 ± 0.4 µM
EC50 [12]: 4.5 ± 1.8 µM
EC50 [13]: 25.6 ± 2.8 µM
EC50 [14]: 6.87 ± 0.4 µM
EC50 [15]: 1.6 ± 0.2 µM
EC50 [16]: 17.7 ± 3.8 µM
EC50 [17]: 25.2 ± 6.2 µM
EC50 [18]: 25.7 ± 5.3 µM
EC50 [19]: 15.5 ± 4.7 µM
EC50 [20]: 18.8 ± 2.2 µM
EC50 [21]: > 50 µM
EC50 [22]: 6.2 µM
EC50 [23]: > 50 µM
EC50 [24]: 16 ± 3.7 µM
EC50 [25]: > 50 µM
EC50 [26]: 16.7 ± 1.9 µM
EC50 [27]: 21.1 ± 2.8 µM
EC50 [28]: 44.4 µM

SMILES: N=C1C(=O)NC(=O)c2cc(-c3ccc(Cl)cc3)sc21 [Compound 9b, 2-(4-Chlorophenyl)-7-iminothieno[3,2-c]pyridine-4,6(5H,7H)-dione]
IC50 [1]: 41.9 ± 1.15 nM

SMILES: N=C1C(=O)NC(=O)c2cc(-c3ccccc3F)sc21 [Compound 9l, 2-(2-Fluorophenyl)-7-iminothieno[3,2-c]pyridine-4,6(5H,7H)-dione]
IC50 [1]: 53.4 ± 1.46 nM

SMILES: N=C1C(=O)NC(=O)c2cc(-c3cccc(C(F)(F)F)c3)sc21 [Compound 9g, 7-Imino-2-(3-(trifluoromethyl)phenyl)thieno[3,2-c]pyridine-4,6(5H,7H)-dione]
IC50 [1]: 193 ± 6.06 nM

SMILES: N=C1C(=O)NC(=O)c2cc(-c3ccc(F)cc3)sc21 [Compound 9d, 2-(4-Fluorophenyl)-7-iminothieno[3,2-c]pyridine-4,6(5H,7H)-dione]
IC50 [1]: 71 ± 2.54 nM

SMILES: N=C1C(=O)NC(=O)c2cc(-c3ccc(OCCN4CCOCC4)cc3)sc21 [Compound 9o, 7-Imino-2-(4-(2-morpholinoethoxy)phenyl)thieno[3,2-c]pyridine-4,6(5H, 7H)-dione]
IC50 [1]: 98.2 ± 2.49 nM
IC50 [2]: 12 ± 3.84 µM
IC50 [3]: > 50 µM
IC50 [4]: > 50 µM
IC50 [5]: 19.6 ± 4.66 µM
IC50 [6]: 43.2 ± 8.5 nM
IC50 [29]: 73.9 ± 10 nM
IC50 [7]: 98.2 nM
preference among the PTP4A family members (PTP4A3 versus PTP4A1, PTP4A2), in words [7]: little preference

SMILES: N=C1C(=O)NC(=O)c2cc(-c3ccc(F)c(Cl)c3)sc21 [Compound 9n, 2-(3-Chloro-4-fluorophenyl)-7-iminothieno[3,2-c]pyridine-4,6(5H,7H)-dione]
IC50 [1]: 67.7 ± 3 nM

More lines, main results first:

IC50 [1]: 65.7 ± 4.13 nM
SMILES: N=C1C(=O)NC(=O)c2cc(-c3cccc(Cl)c3)sc21 [Compound 9h, 2-(3-Chlorophenyl)-7-iminothieno[3,2-c]pyridine-4,6(5H,7H)-dione]

IC50 [4]: > 50 µM
IC50 [5]: > 50 µM
IC50 [6]: > 1000 nM
inhibition of PTP4A1 (in words) ([6]; DiFMUP, 25-minute incubation): inactive
IC50 [29]: > 1000 nM
inhibition of PTP4A2 (in words) ([29]; DiFMUP, 25-minute incubation): inactive
IC50 [7]: > 1000 nM
SMILES: O=c1[nH]c(=O)c2cc(-c3ccccc3)sc2[nH]1 [JMS-038, 6-phenylthieno[2,3-d]pyrimidine-2,4(1H,3H)-dione, reference compound]
IC50 [2]: > 50 µM
IC50 [3]: > 50 µM
inhibition of PTP4A3 (in words) ([7]; DiFMUP, 25-minute incubation): failed to inhibit; also recorded: inactive

IC50 [1]: 32.2 ± 3.52 nM
SMILES: CN1C(=O)C(=O)c2sc(-c3ccccc3)cc2C1=O [NRT-892-04]

IC50 [1]: 53.4 ± 1.46 nM
SMILES: Cc1cccc(-c2cc3c(s2)C(=N)C(=O)NC3=O)c1 [Compound 9i, 7-Imino-2-(m-tolyl)thieno[3,2-c]pyridine-4,6(5H,7H)-dione]

IC50 [1]: 48.9 ± 12 nM
IC50 [4]: 61.5 ± 9.66 µM
IC50 [5]: 11.5 ± 2.38 µM
IC50 [6]: 133 ± 31.7 nM
IC50 [7]: 86 nM
preference among the PTP4A family members (PTP4A3 versus PTP4A1, PTP4A2), in words [7]: more pronounced preference for PTP4A3
SMILES: CN1C(=O)C(=N)c2sc(-c3ccccc3)cc2C1=O [Compound 9p, 7-Imino-5-methyl-2-phenylthieno[3,2-c]pyridine-4,6(5H,7H)-dione]
IC50 [2]: 10.1 ± 1.93 µM
IC50 [3]: 34.1 ± 8.6 µM

IC50 [1]: 85.7 ± 5.96 nM
SMILES: N=C1C(=O)N(CC2CC2)C(=O)c2cc(-c3ccccc3)sc21 [Compound 9q, 5-(Cyclopropylmethyl)-7-imino-2-phenylthieno[3,2-c]pyridine-4,6(5H,7H)-dione]
